Broadly, the IC50 is the concentration that inhibits the measured activity by half.

The results in this text go back to patent publication US12371428B2 (Exelixis, Inc., priority 2019, dated 2025).

Test [1] deals with Human MET (residues 956-1390) (Homo sapiens (Human), UniProt P08581). Nature of the test: Human Met kinase assay, HTRF KinEase (Example D-2). The conditions noted are these: read-out: c-Met IC50. The format is biochemical. In outline: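 IC50 values come from a 4-parameter logistic fit of the […] fluorescence ratio, set between DMSO (100%) and reference compound at 1 μM (0%). Reactions held MET 956-1390 at 0.1 ng/well, ATP at Km, biotinylated peptide, 5 mM MgCl2, 1 mM MnCl2, 1 mM DTT and 3% DMSO, and ran 40 min at room temperature before streptavidin-XL665/Eu-antibody detection.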
Background: TR-FRET usually uses a lanthanide donor and a delayed reading to cut background.

Test [2] deals with AXL (phospho-AXL, Gas6-stimulated A-172 glioblastoma cells) (Homo sapiens (Human), UniProt P30530). Nature of the test: AXL autophosphorylation ELISA in A-172 cells (Example E). The format is cell-based. The settings on record: cellular activity, read-out: Axl IC50. In a few lines:
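Phospho-AXL in lysates was quantified by ELISA, normalised to DMSO (100%) and reference inhibitor (0%) controls. IC50 by 4-parameter logistic fit.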
On the technique in general: In an ELISA, binding on a coated surface is turned into a signal by an enzyme label.

The target of test [3] is Met (phospho-Met, HGF-stimulated PC-3 prostate cancer cells) (Homo sapiens (Human), UniProt P08581). The experiment in a line: Met autophosphorylation ELISA in PC-3 cells (Example F). The settings on record: cellular activity, read-out: c-Met IC50. The format is cell-based. In outline:
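IC50 values derive from a 4-parameter logistic fit of phospho-Met (panTyr) sandwich ELISA signals in PC-3 lysates, scaled between DMSO and reference-inhibitor wells. Cells, starved 3 h in serum-free medium, had 1 h compound exposure (8 doses, 0.3% DMSO) before 10 min stimulation with 100 ng/mL HGF.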

Test [4] addresses KDR (phospho-KDR, VEGF165-stimulated HUVEC cells) (Homo sapiens (Human), UniProt P35968). Nature of the test: KDR autophosphorylation ELISA in HUVEC cells (Example G). The format is cell-based. The conditions noted are these: cellular activity. In outline:
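IC50 values derive from nonlinear curve fitting of phospho-KDR levels measured by ELISA and interpolated from a phosphoprotein standard. Beforehand, starved HUVECs received compound (0.3% DMSO vehicle) for one hour and were activated with VEGF165 at 100 ng/mL for 5 min.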

Test [5] concerns the target Mer (phospho-Mer, MERTK-transfected 293A cells) (Homo sapiens (Human), UniProt Q12866). The experiment in a line: Mer autophosphorylation ELISA in transient transfected 293A cells (Example H). The settings on record: cellular activity. The class given is cell-based. In outline:
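Inhibition of cellular Mer autophosphorylation is determined in 293A cells transiently expressing human MERTK after 1 h compound exposure (8 concentrations, serum-free, 0.3% DMSO). Phospho-Mer in clarified lysates is measured by ELISA, with DMSO and reference-inhibitor wells defining the 100% and 0% activity limits.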

[6] abbreviates: AXL autophosphorylation ELISA in A-172 cells.
The mark [7] stands for this setting: Met autophosphorylation ELISA in PC-3 cells.
Where [8] appears, read: KDR autophosphorylation ELISA in HUVEC cells.
The mark [9] stands for this setting: Mer autophosphorylation ELISA in transient transfected 293A cells.

Like-named read-outs stand apart in the source and are kept apart here.

Sequence of Mer (phospho-Mer, MERTK-transfected 293A cells) (Q12866 21-999): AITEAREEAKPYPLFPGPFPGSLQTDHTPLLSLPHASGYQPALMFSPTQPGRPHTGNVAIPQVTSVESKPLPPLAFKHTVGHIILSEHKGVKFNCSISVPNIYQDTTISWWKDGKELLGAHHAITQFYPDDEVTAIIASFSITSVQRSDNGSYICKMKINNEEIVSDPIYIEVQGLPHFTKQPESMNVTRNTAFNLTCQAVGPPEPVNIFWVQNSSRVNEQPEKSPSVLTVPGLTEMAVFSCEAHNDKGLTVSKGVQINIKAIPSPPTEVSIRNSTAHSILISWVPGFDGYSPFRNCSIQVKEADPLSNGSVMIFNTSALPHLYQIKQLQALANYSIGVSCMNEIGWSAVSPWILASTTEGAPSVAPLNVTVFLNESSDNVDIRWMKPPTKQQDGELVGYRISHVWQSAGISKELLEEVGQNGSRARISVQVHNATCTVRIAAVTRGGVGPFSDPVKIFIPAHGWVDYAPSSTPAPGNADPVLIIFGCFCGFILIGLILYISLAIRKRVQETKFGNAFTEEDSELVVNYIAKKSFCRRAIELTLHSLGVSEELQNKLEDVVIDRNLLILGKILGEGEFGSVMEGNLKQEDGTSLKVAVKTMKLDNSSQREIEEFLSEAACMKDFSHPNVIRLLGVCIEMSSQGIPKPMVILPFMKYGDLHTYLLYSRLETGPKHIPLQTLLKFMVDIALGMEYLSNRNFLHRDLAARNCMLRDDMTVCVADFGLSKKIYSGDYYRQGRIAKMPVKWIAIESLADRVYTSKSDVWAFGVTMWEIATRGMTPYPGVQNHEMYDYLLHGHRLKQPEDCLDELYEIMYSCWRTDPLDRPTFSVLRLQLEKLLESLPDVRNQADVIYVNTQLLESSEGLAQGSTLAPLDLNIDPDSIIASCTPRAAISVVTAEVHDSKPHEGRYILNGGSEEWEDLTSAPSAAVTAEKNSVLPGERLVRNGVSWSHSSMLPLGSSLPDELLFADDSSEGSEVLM
Sequence of KDR (phospho-KDR, VEGF165-stimulated HUVEC cells) (P35968 20-1356): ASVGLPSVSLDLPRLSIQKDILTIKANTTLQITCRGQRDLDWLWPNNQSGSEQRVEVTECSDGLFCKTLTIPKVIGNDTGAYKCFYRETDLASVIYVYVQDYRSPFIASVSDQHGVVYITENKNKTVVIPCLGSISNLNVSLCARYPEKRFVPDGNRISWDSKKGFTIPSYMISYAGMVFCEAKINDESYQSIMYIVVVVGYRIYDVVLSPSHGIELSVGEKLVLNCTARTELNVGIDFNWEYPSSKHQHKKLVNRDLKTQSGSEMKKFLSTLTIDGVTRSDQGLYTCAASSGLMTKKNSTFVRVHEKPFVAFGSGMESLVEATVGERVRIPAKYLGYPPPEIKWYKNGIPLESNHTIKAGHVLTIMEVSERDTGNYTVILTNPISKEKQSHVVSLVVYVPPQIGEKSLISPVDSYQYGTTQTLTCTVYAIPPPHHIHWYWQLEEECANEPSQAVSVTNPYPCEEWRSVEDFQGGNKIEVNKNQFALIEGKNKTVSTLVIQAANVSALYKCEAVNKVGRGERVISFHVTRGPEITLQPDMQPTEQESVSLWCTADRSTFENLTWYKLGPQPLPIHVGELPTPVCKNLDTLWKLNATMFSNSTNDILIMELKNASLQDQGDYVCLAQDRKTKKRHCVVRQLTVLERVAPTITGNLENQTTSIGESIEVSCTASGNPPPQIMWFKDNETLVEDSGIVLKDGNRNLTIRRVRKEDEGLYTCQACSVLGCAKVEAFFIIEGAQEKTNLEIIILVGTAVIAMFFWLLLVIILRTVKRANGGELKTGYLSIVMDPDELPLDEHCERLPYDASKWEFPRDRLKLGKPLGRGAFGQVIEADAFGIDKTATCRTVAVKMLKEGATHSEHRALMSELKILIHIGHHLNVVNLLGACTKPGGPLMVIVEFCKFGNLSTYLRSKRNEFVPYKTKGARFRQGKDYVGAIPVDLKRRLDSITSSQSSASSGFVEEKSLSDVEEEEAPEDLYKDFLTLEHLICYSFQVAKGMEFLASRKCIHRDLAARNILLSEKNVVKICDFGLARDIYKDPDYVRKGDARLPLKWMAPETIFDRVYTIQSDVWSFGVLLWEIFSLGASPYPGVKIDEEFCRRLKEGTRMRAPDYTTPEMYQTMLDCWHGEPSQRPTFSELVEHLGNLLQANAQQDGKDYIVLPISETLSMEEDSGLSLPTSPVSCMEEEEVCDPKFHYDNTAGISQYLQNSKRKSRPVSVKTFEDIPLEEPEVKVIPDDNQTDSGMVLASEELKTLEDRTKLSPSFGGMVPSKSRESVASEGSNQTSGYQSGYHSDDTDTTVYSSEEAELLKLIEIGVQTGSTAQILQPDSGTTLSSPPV
Sequence of Met (phospho-Met, HGF-stimulated PC-3 prostate cancer cells) (P08581 25-1390): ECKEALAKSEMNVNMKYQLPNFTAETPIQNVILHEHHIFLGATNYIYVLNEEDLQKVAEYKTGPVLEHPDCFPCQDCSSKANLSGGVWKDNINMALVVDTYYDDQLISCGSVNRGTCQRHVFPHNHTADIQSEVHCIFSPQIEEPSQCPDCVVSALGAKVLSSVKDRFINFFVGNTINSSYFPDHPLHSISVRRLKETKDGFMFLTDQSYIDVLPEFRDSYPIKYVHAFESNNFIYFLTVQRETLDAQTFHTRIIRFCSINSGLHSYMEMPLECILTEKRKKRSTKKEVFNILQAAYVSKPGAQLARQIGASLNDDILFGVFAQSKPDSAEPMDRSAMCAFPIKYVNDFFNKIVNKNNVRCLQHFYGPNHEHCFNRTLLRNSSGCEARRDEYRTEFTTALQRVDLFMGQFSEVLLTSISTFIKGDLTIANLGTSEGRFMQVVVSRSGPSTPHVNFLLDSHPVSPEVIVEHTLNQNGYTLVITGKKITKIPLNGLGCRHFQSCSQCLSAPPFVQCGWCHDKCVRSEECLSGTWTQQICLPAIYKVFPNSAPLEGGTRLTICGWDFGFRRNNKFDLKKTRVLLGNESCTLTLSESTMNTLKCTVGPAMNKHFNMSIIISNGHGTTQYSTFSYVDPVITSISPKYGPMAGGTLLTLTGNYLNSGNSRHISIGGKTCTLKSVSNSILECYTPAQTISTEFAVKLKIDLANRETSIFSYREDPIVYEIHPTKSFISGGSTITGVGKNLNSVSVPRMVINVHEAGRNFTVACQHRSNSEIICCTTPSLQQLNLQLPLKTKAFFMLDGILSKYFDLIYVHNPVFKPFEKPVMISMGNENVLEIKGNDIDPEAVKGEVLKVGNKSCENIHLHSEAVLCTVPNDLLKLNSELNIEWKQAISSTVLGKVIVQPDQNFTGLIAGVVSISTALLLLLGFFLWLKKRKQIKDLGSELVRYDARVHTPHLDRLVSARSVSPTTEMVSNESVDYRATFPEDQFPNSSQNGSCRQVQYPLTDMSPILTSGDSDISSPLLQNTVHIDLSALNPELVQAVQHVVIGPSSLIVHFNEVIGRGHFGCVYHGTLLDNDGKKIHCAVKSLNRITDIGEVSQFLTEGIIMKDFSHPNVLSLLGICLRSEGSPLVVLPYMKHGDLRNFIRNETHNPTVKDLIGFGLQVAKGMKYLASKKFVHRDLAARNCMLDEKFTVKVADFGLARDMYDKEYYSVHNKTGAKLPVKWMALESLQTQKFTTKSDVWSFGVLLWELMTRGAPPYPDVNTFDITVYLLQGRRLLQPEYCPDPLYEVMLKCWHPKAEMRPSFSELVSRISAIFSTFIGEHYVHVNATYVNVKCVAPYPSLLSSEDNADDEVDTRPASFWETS
Sequence of AXL (phospho-AXL, Gas6-stimulated A-172 glioblastoma cells) (P30530 26-894): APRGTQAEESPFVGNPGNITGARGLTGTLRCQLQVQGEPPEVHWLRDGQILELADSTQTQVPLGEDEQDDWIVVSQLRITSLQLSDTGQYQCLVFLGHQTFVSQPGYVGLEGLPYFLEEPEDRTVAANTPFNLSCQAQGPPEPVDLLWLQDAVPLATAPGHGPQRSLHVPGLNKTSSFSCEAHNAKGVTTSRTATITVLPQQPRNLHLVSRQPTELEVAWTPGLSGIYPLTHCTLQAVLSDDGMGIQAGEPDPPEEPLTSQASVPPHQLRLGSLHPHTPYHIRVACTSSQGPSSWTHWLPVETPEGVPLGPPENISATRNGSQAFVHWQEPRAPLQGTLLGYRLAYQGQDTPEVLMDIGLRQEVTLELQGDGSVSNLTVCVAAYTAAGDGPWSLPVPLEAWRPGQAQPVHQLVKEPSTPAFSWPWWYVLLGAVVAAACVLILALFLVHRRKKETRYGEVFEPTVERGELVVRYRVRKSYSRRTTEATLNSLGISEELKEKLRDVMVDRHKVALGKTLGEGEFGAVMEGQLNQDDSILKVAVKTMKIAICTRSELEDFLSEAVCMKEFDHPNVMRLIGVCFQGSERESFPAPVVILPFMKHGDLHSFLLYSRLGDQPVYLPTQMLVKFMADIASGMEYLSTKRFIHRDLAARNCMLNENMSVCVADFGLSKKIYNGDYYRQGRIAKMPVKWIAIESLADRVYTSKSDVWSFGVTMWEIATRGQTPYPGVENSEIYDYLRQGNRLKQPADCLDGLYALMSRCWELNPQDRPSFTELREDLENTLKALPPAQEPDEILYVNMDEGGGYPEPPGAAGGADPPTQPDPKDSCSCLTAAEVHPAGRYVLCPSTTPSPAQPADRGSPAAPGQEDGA
Sequence of Human MET (residues 956-1390) (P08581 956-1390): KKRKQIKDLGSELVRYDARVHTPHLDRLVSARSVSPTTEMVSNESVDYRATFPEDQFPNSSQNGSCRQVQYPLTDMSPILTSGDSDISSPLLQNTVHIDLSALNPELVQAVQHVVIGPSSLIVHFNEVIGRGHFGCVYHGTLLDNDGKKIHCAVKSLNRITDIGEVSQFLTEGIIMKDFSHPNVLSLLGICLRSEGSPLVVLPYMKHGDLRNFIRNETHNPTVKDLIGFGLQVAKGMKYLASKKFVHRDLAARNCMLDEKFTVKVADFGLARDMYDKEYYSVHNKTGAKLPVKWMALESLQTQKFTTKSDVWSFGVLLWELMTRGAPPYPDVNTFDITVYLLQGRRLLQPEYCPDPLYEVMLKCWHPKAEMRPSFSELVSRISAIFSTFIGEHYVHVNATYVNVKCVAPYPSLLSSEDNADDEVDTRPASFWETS

`COc1cc2nccc(Oc3ccc(NC(=O)c4cn(C5CN(C)C5)cc(-c5ccc(F)cc5)c4=O)cc3F)c2nc1OC` [Compound 52, N-[4-[(6,7-Dmethoxy-1,5-naphthyridin-4-yl)oxy]-3-fluorophenyl]-5-(4-fluorophenyl)-1-(1-methylazetidin-3-yl)-4-oxopyridine-3-carboxamide]: the IC50 is less than 100 nM in test [1] (protocol of Example D-2 (other compounds)); less than 100 nM in test [2] (setting [6]); less than 100 nM in test [3] (setting [7]); greater than 300 nM in test [4] (setting [8]); less than 100 nM in test [5] (setting [9]).
On to `COc1cc2nccc(Oc3ccc(NC(=O)c4cn(C5CNC5)cc(-c5ccc(F)cc5)c4=O)cc3F)c2nc1OC` [Compound 576, 1-(Azetidin-3-yl)-N-[4-[(6,7-dimethoxy-1,5-naphthyridin-4-yl)oxy]-3-fluorophenyl]-5-(4-fluorophenyl)-4-oxopyridine-3-carboxamide], for which the IC50 was less than 100 nM in test [1] (protocol of Example D-2); less than 100 nM in test [2] (setting [6]); less than 100 nM in test [3] (setting [7]); greater than 300 nM in test [4] (setting [8]); less than 100 nM in test [5] (setting [9]).
On to `COc1cnc2c(Oc3ccc(NC(=O)c4c(C)ncc(-c5ccc(F)c(F)c5)c4O)cc3F)ccnc2c1` [Compound 797, 5-(3,4-difluorophenyl)-N-[3-fluoro-4-[(7-methoxy-1,5-naphthyridin-4-yl)oxy]phenyl]-4-hydroxy-2-methylpyridine-3-carboxamide], for which the IC50 in test [2] (setting [6]), in test [3] (setting [7]), in test [4] (setting [8]) and in test [5] (setting [9]) was less than 100 nM in each case.
For the compound `COc1cc2nccc(Oc3ccc(NC(=O)c4c5n(cc(-c6ccc(F)cc6)c4=O)CCOC5)cc3F)c2nc1OC` [Compound 808, N-[4-[(6,7-dimethoxy-1,5-naphthyridin-4-yl)oxy]-3-fluorophenyl]-7-(4-fluorophenyl)-8-oxo-3,4-dihydro-1H-pyrido[2,1-c][1,4]oxazine-9-carboxamide], the IC50 in test [2] (A-172 cells) is less than 100 nM; in test [3] (PC-3 cells) it was less than 100 nM; in test [4] (HUVEC cells), greater than 300 nM; in test [5] (transfected 293A cells), less than 100 nM.
As to `COc1cnc2c(Oc3ccc(NC(=O)c4c5n(cc(-c6ccc(F)cc6)c4=O)CCOC5)cc3F)ccnc2c1` [Compound 809, N-[3-fluoro-4-[(7-methoxy-1,5-naphthyridin-4-yl)oxy]phenyl]-7-(4-fluorophenyl)-8-oxo-3,4-dihydro-1H-pyrido[2,1-c][1,4]oxazine-9-carboxamide], the IC50 in test [2] (A-172 cells) is less than 100 nM; in test [3] (PC-3 cells), less than 100 nM; in test [4] (HUVEC cells), greater than 300 nM; in test [5] (transfected 293A cells), less than 100 nM.
For the compound `COc1cc(F)ccc1-c1cn(CC(F)F)c(C)c(C(=O)Nc2ccc(Oc3ccnc4cc(OC)c(OC)nc34)c(F)c2)c1=O` [Compound 810, 1-(2,2-difluoroethyl)-N-[4-[(6,7-dimethoxy-1,5-naphthyridin-4-yl)oxy]-3-fluorophenyl]-5-(4-fluoro-2-methoxyphenyl)-2-methyl-4-oxopyridine-3-carboxamide], the IC50 in test [2] (A-172 cells), in test [3] (PC-3 cells), in test [4] (HUVEC cells) and in test [5] (transfected 293A cells) was less than 100 nM each time.
With `COc1cnc2c(Oc3ccc(NC(=O)c4c(C)n(CC(F)F)cc(-c5ccc(F)cc5OC)c4=O)cc3F)ccnc2c1` [Compound 811, 1-(2,2-difluoroethyl)-N-[3-fluoro-4-[(7-methoxy-1,5-naphthyridin-4-yl)oxy]phenyl]-5-(4-fluoro-2-methoxyphenyl)-2-methyl-4-oxopyridine-3-carboxamide], the IC50 in test [2] (A-172 cells), in test [3] (PC-3 cells), in test [4] (HUVEC cells) and in test [5] (transfected 293A cells) was less than 100 nM in each case.
Turning to `COc1cc2nccc(Oc3ccc(NC(=O)c4c(C)n(CC(F)F)cc(-c5ccc(F)c(C)c5)c4=O)cc3F)c2nc1OC` [Compound 812, 1-(2,2-difluoroethyl)-N-[4-[(6,7-dimethoxy-1,5-naphthyridin-4-yl)oxy]-3-fluorophenyl]-5-(4-fluoro-3-methylphenyl)-2-methyl-4-oxopyridine-3-carboxamide], the IC50 in test [2] (A-172 cells) was less than 100 nM; in test [3] (PC-3 cells), less than 100 nM; in test [4] (HUVEC cells) it was greater than 300 nM; in test [5] (transfected 293A cells), less than 100 nM.
As for `COc1cnc2c(Oc3ccc(NC(=O)c4c(C)n(CCF)cc(-c5ccc(F)c(C)c5)c4=O)cc3F)ccnc2c1` [Compound 813, 1-(2-fluoroethyl)-N-[3-fluoro-4-[(7-methoxy-1,5-naphthyridin-4-yl)oxy]phenyl]-5-(4-fluoro-3-methylphenyl)-2-methyl-4-oxopyridine-3-carboxamide], the IC50 in test [2] (A-172 cells) was less than 100 nM; in test [3] (PC-3 cells), less than 100 nM; in test [4] (HUVEC cells), 100 to 300 nM; in test [5] (transfected 293A cells), less than 100 nM.
Turning to `COc1cnc2c(Oc3ccc(NC(=O)c4c(C)n(CC(F)F)cc(-c5ccc(F)c(C)c5)c4=O)cc3F)ccnc2c1` [Compound 814, 1-(2,2-difluoroethyl)-N-[3-fluoro-4-[(7-methoxy-1,5-naphthyridin-4-yl)oxy]phenyl]-5-(4-fluoro-3-methylphenyl)-2-methyl-4-oxopyridine-3-carboxamide], the IC50 in test [2] (A-172 cells) is less than 100 nM; in test [3] (PC-3 cells) it was less than 100 nM; in test [4] (HUVEC cells) it was greater than 300 nM; in test [5] (transfected 293A cells), less than 100 nM.
`COc1cc2nccc(Oc3ccc(NC(=O)c4c(C)n(CCF)cc(-c5ccc(F)c(F)c5)c4=O)cc3F)c2nc1OC` [Compound 815, 5-(3,4-difluorophenyl)-N-[4-[(6,7-dimethoxy-1,5-naphthyridin-4-yl)oxy]-3-fluorophenyl]-1-(2-fluoroethyl)-2-methyl-4-oxopyridine-3-carboxamide]: the IC50 is less than 100 nM in test [2] (A-172 cells), less than 100 nM in test [3] (PC-3 cells), 100 to 300 nM in test [4] (HUVEC cells) and less than 100 nM in test [5] (transfected 293A cells).
With `COc1cc2nccc(Oc3ccc(NC(=O)c4c(C)n(CC(F)F)cc(-c5ccc(F)c(F)c5)c4=O)cc3F)c2nc1OC` [Compound 816, 1-(2,2-difluoroethyl)-5-(3,4-difluorophenyl)-N-[4-[(6,7-dimethoxy-1,5-naphthyridin-4-yl)oxy]-3-fluorophenyl]-2-methyl-4-oxopyridine-3-carboxamide], the IC50 in test [2] (A-172 cells) is less than 100 nM; in test [3] (PC-3 cells), less than 100 nM; in test [4] (HUVEC cells), greater than 300 nM; in test [5] (transfected 293A cells) it was less than 100 nM.
For `COc1cc2nccc(Oc3ccc(NC(=O)c4c(C)n(C)c(C)c(-c5ccc(F)c(C)c5)c4=O)cc3F)c2nc1OC` [Compound 821, N-[4-[(6,7-dimethoxy-1,5-naphthyridin-4-yl)oxy]-3-fluorophenyl]-5-(4-fluoro-3-methylphenyl)-1,2,6-trimethyl-4-oxopyridine-3-carboxamide], the IC50 in test [2] (A-172 cells) is less than 100 nM; in test [3] (PC-3 cells), less than 100 nM; in test [4] (HUVEC cells), 100 to 300 nM; in test [5] (transfected 293A cells), less than 100 nM.
